Each block holds one compound with its values, some of them ahead of it.
Tests used:
HCV = settings: hepatitis C treatment regimens, background; cited from earlier work
[1] = test system: genotype 1a-H77 subgenomic replicon cell line; assay: microbe, parasite or virus in culture; format: cell-based, HCV; settings: Hepatitis C virus, read-out: EC50 1a
[2] = test system: genotype 1b-Con1 subgenomic replicon cell line; assay: microbe, parasite or virus in culture; format: cell-based, HCV; settings: Hepatitis C virus, read-out: EC50 1b
[3] = target: T1, HCV polymerase 1A (Δ21 NS5B, H77) (Hepatitis C virus genotype 1a, UniProt P27958); assay: biochemical; settings: IC50 1a
T1 construct: 20 to 50 nM Δ21 NS5B
Method in brief: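 Radiometric assay with Δ21 NS5B (H77): 20 μM CTP, 20 μM ATP, 1 μM ^3H-UTP, 5 nM template RNA, 2–4 h at room temperature. RNA precipitated with spermine, filter-captured and counted. IC50 from non-linear fit of retained cpm vs inhibitor concentration (tight-binding equation).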

[4] = target: T2, HCV polymerase 1B (Δ21 NS5B, BK) (Hepatitis C virus genotype 1b, UniProt P26663); assay: biochemical
T2 construct: 20 to 50 nM Δ21 NS5B
Method in brief: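 Δ21 NS5B (genotype 1b, BK […]) preincubated 15 min RT with inhibitor, 2 mM MnCl2, pH 7.4, 60–125 μM GTP; started with 20 μM CTP/ATP, 1 μM 3H-UTP, 5 nM template RNA, run 2–4 h RT. Spermine-precipitated RNA filter-captured, scintillation counted; IC50 from tight-binding (Morrison) fit.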

T1 sequence (P27958 2421-2990, stated change not applied): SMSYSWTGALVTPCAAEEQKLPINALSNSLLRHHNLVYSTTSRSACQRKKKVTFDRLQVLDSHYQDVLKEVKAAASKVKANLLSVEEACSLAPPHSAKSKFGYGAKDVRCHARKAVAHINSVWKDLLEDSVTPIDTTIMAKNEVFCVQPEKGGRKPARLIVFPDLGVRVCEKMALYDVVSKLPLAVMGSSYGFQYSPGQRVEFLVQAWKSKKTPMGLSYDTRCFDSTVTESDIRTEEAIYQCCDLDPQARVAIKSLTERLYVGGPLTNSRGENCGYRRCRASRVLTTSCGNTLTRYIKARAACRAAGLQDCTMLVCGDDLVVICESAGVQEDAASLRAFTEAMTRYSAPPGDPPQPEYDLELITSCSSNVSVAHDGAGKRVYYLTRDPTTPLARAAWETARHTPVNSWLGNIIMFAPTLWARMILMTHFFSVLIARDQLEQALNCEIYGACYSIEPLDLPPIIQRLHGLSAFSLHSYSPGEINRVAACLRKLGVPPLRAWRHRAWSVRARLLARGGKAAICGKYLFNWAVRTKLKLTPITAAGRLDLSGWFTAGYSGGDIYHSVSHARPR
T2 sequence (P26663 2420-2989, stated change not applied): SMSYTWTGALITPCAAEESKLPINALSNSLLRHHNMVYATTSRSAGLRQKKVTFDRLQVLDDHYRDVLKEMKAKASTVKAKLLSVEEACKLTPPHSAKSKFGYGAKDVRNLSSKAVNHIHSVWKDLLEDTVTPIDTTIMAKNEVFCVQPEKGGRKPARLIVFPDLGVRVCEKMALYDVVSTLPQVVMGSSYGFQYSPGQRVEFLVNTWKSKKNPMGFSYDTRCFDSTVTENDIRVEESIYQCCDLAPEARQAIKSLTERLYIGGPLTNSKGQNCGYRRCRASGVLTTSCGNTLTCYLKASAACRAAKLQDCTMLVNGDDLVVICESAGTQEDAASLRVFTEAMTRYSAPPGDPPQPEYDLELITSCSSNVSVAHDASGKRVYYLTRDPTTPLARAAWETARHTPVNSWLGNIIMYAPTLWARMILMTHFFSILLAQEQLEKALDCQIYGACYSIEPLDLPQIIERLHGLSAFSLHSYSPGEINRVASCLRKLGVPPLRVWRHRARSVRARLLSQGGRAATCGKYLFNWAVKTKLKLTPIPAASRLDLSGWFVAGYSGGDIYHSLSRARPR

SMILES: NC(=O)c1ncn([C@@H]2O[C@H](CO)[C@@H](O)[C@H]2O)n1 [ribavirin]
suppression of HCV levels / effectiveness (HCV): does not effectively suppress HCV levels

melting point: > 300 °C
SMILES: COc1c(-c2ccc3cc(NS(C)(=O)=O)ccc3c2)cc(-n2ccc(=O)[nH]c2=O)cc1C(C)(C)C(=O)O [IB-L0-2.77, 2-(5-(2,4-dioxo-3,4-dihydropyrimidin-1(2H)-yl)-2-methoxy-3-(6-(methylsulfonamido)naphthalen-2-yl)phenyl)-2-methylpropanoic acid]

melting point: 175 to 178 °C
SMILES: COc1c(C#C[Si](C)(C)C)cc(-n2ccc(=O)[nH]c2=O)cc1-c1ccc2cc(NS(C)(=O)=O)ccc2c1 [IB-L0-2.78, N-(6-(5-(2,4-dioxo-3,4-dihydropyrimidin-1(2H)-yl)-2-methoxy-3-((trimethylsilyl)ethynyl)phenyl)naphthalen-2-yl)methanesulfonamide]

SMILES: COc1c(-c2ccc3cc(NS(C)(=O)=O)ccc3c2)cc(-n2ccc(=O)[nH]c2=O)cc1C(F)(F)C(F)(F)F [IB-L0-2.60, N-(6-(5-(2,4-dioxo-3,4-dihydropyrimidin-1(2H)-yl)-2-methoxy-3-(perfluoroethyl)phenyl)naphthalen-2-yl)methanesulfonamide]
EC50 [1]: 100 to 1000 nM
EC50 [2]: 10 to 100 nM
melting point: 162 to 165 °C

SMILES: CC(C)(C)c1cc(-n2ccc(=O)[nH]c2=O)cc(-c2ccc3cc(NS(C)(=O)=O)ccc3c2)c1Cl [IB-L0-2.14, N-(6-(3-tert-butyl-2-chloro-5-(2,4-dioxo-3,4-dihydropyrimidin-1(2H)-yl)phenyl)naphthalen-2-yl)methanesulfonamide]
EC50 [1]: 100 to 1000 nM
EC50 [2]: 10 to 100 nM
melting point: > 280 °C

SMILES: COc1c(-c2ccc3cc(NS(C)(=O)=O)ccc3c2)cc(-n2ccc(=O)[nH]c2=O)cc1C(C)(C)CO [IB-L0-2.54, N-(6-(5-(2,4-dioxo-3,4-dihydropyrimidin-1(2H)-yl)-3-(1-hydroxy-2-methylpropan-2-yl)-2-methoxyphenyl)naphthalen-2-yl)methanesulfonamide]
EC50 [1]: 10 to 100 nM
EC50 [2]: 10 to 100 nM
melting point: 256 to 257 °C

SMILES: CCOc1c(-c2ccc3cc(NS(C)(=O)=O)ccc3c2)cc(-n2ccc(=O)[nH]c2=O)cc1C(C)(C)C [IB-L0-2.23, N-(6-(3-tert-butyl-5-(2,4-dioxo-3,4-dihydropyrimidin-1(2H)-yl)-2-ethoxyphenyl)naphthalen-2-yl)methanesulfonamide]
EC50 [1]: 100 to 1000 nM
EC50 [2]: 10 to 100 nM
melting point: 196 to 202 °C

SMILES: COc1c(-c2ccc3c(CN(C)S(C)(=O)=O)csc3c2)cc(-n2ccc(=O)[nH]c2=O)cc1C(C)(C)C [IB-L0-2.21, N-((6-(3-tert-butyl-5-(2,4-dioxo-3,4-dihydropyrimidin-1(2H)-yl)-2-methoxyphenyl)benzo[b]thiophen-3-yl)methyl)-N-methylmethanesulfonamide]
IC50 [3]: 10 to 100 nM
IC50 [4]: 10 to 100 nM
EC50 [1]: 100 to 1000 nM
EC50 [2]: 10 to 100 nM

SMILES: COc1c(-c2ccc3cc(NS(C)(=O)=O)ccc3c2)cc(-n2ccc(=O)[nH]c2=O)cc1-c1ccc(C)o1 [IB-L0-2.58, N-(6-(5-(2,4-dioxo-3,4-dihydropyrimidin-1(2H)-yl)-2-methoxy-3-(5-methylfuran-2-yl)phenyl)naphthalen-2-yl)methanesulfonamide]
EC50 [1]: 10 to 100 nM
EC50 [2]: < 10 nM
melting point: 174 to 178 °C

SMILES: COc1c(-c2ccc(CCNS(C)(=O)=O)cc2)cc(-n2ccc(=O)[nH]c2=O)cc1C(C)(C)C [IB-L0-1.4, N-(2-(3′-tert-butyl-5′-(2,4-dioxo-3,4-dihydropyrimidin-1(2H)-yl)-2′-methoxybiphenyl-4-yl)ethyl)methanesulfonamide]
IC50 [3]: 10 to 100 nM
IC50 [4]: 10 to 100 nM
EC50 [1]: 100 to 1000 nM
EC50 [2]: 10 to 100 nM

SMILES: CC(C)(C)c1cc(N2CCC(=O)NC2=O)cc(C(=O)Nc2cccc(NS(C)(=O)=O)c2)c1O [IA-L3-1.5, 3-tert-butyl-5-(2,4-dioxotetrahydropyrimidin-1(2H)-yl)-2-hydroxy-N-(3-(methylsulfonamido)phenyl)benzamide]
IC50 [3]: 100 to 1000 nM
IC50 [4]: 10 to 100 nM
EC50 [1]: > 1000 nM
EC50 [2]: > 1000 nM

SMILES: COc1c(I)cc(-n2ccc(=O)[nH]c2=O)cc1C#Cc1ccc(NS(C)(=O)=O)cc1C [IB-L2-1.15, N-(4-((5-(2,4-dioxo-3,4-dihydropyrimidin-1(2H)-yl)-3-iodo-2-methoxyphenyl)ethynyl)-3-methylphenyl)methanesulfonamide]
IC50 [3]: 100 to 1000 nM
IC50 [4]: 100 to 1000 nM
EC50 [1]: > 1000 nM
EC50 [2]: 100 to 1000 nM

SMILES: CC(C)(C)c1cc(N2CCC(=O)NC2=O)cc(C(=O)Nc2ccc(CC(=O)O)cc2)c1O [IA-L3-1.15, 2-(4-(3-tert-butyl-5-(2,4-dioxotetrahydropyrimidin-1(2H)-yl)-2-hydroxybenzamido)phenyl)-acetic acid]
IC50 [3]: > 1000 nM
IC50 [4]: 100 to 1000 nM
EC50 [1]: > 1000 nM
EC50 [2]: > 1000 nM

From patent publication US8415351B2 (priority 2007, dated 2013)
